Common to all, as to conditions: Homo sapiens
Test [1] in a line: Cytotoxicity against PL45 cells at 5 uM by [3H]thymidine inhibition assay. It counts as functional, cell-based.
In test [2] the test system is BXPC-3. In words: Cytotoxicity against BxPC3 cells at 5 uM by [3H]thymidine inhibition assay. It counts as functional, cell-based.
The nature of test [3]: Cytotoxicity against WS1 cells. The format is cell-based.

Here are results for 30 compounds from ChEMBL document CHEMBL1146254, “Identification of Sansalvamide a analog potent against pancreatic cancer cell lines” (Bioorg Med Chem Lett, 2007).

Where a SMILES comes first, the peptide text is derived from it. [ ]: non-standard residue; d: D form. Cha = N[C@@H](CC1CCCCC1)C(=O)O; NMeL = CN[C@@H](CC(C)C)C(=O)O; dNMeL = CN[C@H](CC(C)C)C(=O)O; dNMeV = CN[C@@H](C(=O)O)C(C)C; dAbu = CC[C@@H](N)C(=O)O

For the compound `CC(C)C[C@@H]1NC(=O)[C@H](Cc2ccccc2)NC(=O)[C@H](CC(C)C)NC(=O)[C@@H](C(C)C)N(C)C(=O)[C@H](CC2CCCCC2)NC1=O` (cyclo([Cha][dNMeV]LFL)), the figures for the inhibition at 5 µM in test [1] and in test [2] were 45% and 52%, respectively.
On to `CC(C)C[C@@H]1NC(=O)[C@H](Cc2ccccc2)NC(=O)[C@H](CC(C)C)NC(=O)[C@@H](C(C)C)N(C)C(=O)[C@H](CC(C)C)NC1=O` (cyclo(FLL[dNMeV]L)), for which the inhibition at 5 µM in test [1] was 29%; in test [2], 34%.
Regarding `CC(C)C[C@@H]1NC(=O)[C@H](C(C)C)NC(=O)[C@H](CC(C)C)NC(=O)[C@@H](CC(C)C)NC(=O)[C@H](Cc2ccccc2)NC1=O` (cyclo(F[dL]LVL)), the inhibition at 5 µM in test [1] worked out at 73%; in test [2], 29%.
Turning to `CC(C)C[C@@H]1NC(=O)[C@H](CC(C)C)NC(=O)[C@H](Cc2ccccc2)NC(=O)[C@@H](CO)NC(=O)[C@H](CC(C)C)NC1=O`, the inhibition at 5 µM in test [1] worked out at 32%; in test [2], 25%.
Consider `CC(C)C[C@@H]1NC(=O)[C@H](C(C)C)NC(=O)[C@H](CC(C)C)NC(=O)[C@H](CC(C)C)N(C)C(=O)[C@H](Cc2ccccc2)NC1=O` (cyclo(F[NMeL]LVL)), for which the values for the IC50 in test [1], in test [2] and in test [3] were 3 µM, 2 µM and 200 µM, respectively. In addition, the figures for the inhibition at 5 µM in test [1] and in test [2] were 55% and 59%, respectively.
As to `CC(C)C[C@@H]1NC(=O)[C@H](Cc2ccccc2)NC(=O)[C@H](CC(C)C)N(C)C(=O)[C@H](CC(C)C)NC(=O)[C@H](CC(C)C)NC1=O`, the inhibition at 5 µM in test [1] came to 27%; in test [2], 46%.
With `CC(C)C[C@@H]1NC(=O)[C@@H](CC(C)C)NC(=O)[C@H](Cc2ccccc2)NC(=O)[C@H](CC(C)C)NC(=O)[C@@H](C(C)C)NC1=O` (cyclo(F[dL]L[dV]L)), the inhibition at 5 µM is 32% in test [1] and 13% in test [2].
Take `CC(C)C[C@@H]1NC(=O)[C@H](CC(C)C)NC(=O)[C@H](Cc2ccccc2)N(C)C(=O)[C@H](CC(C)C)NC(=O)[C@H](CC(C)C)NC1=O`: the IC50 amounted to 5 µM in test [1], 2 µM in test [2] and 200 µM in test [3]. In addition, the results for the inhibition at 5 µM in test [1] and in test [2] were 44% and 62%, respectively.
As to `CC(C)C[C@@H]1NC(=O)[C@H](Cc2ccccc2)NC(=O)[C@H](CC(C)C)NC(=O)[C@@H](CO)NC(=O)[C@H](CC(C)C)NC1=O` (cyclo(FLL[dS]L)), the inhibition at 5 µM in test [1] came out at 25%; in test [2] it was 22%.
As for `CC(C)C[C@@H]1NC(=O)[C@H](Cc2ccccc2)NC(=O)[C@H](CC(C)C)NC(=O)[C@@H](C(C)C)NC(=O)[C@H](CCCCNC(=O)Cc2ccccc2)NC1=O`, the inhibition at 5 µM in test [1] and in test [2] was 29% in each case.
In the case of `CC(C)C[C@@H]1NC(=O)[C@H](CC(C)C)NC(=O)[C@H](Cc2ccccc2)NC(=O)[C@@H](CC(C)C)NC(=O)[C@H](CC(C)C)NC1=O`, the results for the inhibition at 5 µM in test [1] and in test [2] were 41% and 34%, respectively.
As for `CC(C)C[C@@H]1NC(=O)[C@H](Cc2ccccc2)NC(=O)[C@H](CC(C)C)NC(=O)[C@@H](C(C)C)NC(=O)[C@H](CCCCN)NC1=O` (cyclo(FLK[dV]L)), the inhibition at 5 µM in test [1] was 20%; in test [2], 16%.
As for `CC(C)C[C@@H]1NC(=O)[C@H](Cc2ccccc2)NC(=O)[C@H](CC(C)C)NC(=O)[C@@H](Cc2ccccc2)NC(=O)[C@H](CC(C)C)NC1=O` (cyclo(FLL[dF]L)), the values for the inhibition at 5 µM in test [1] and in test [2] were 33% and 8%, respectively.
The matching figures for `CC(C)C[C@@H]1NC(=O)[C@@H](C(C)C)NC(=O)[C@H](CC(C)C)NC(=O)[C@H](CC(C)C)N(C)C(=O)[C@H](Cc2ccccc2)NC1=O` (cyclo(F[NMeL]L[dV]L)): 26% and 2%.
`CC(C)C[C@@H]1NC(=O)[C@H](C(C)C)NC(=O)[C@H](CC(C)C)N(C)C(=O)[C@@H](CC(C)C)NC(=O)[C@H](Cc2ccccc2)NC1=O` (cyclo(F[dL][NMeL]VL)): the inhibition at 5 µM in test [1] was 25%; in test [2], 71%.
For `CC(C)C[C@@H]1NC(=O)[C@H](CC(C)C)NC(=O)[C@H](CC(C)C)NC(=O)[C@@H](Cc2ccc(O)cc2)NC(=O)[C@H](CC(C)C)NC1=O`, the values for the inhibition at 5 µM in test [1] and in test [2] were 46% and 33%, respectively.
For `CC(C)C[C@@H]1NC(=O)[C@H](Cc2ccccc2)NC(=O)[C@H](CC(C)C)NC(=O)[C@H](CC(C)C)NC(=O)[C@H](CC(C)C)NC1=O`, the results for the IC50 in test [1], in test [2] and in test [3] were 70 µM, 25 µM and 200 µM, respectively. Besides, the inhibition at 5 µM is 25% in test [1] and 42% in test [2].
`CC(C)C[C@@H]1NC(=O)[C@H](C(C)C)NC(=O)[C@@H](CC(C)C)NC(=O)[C@@H](CC(C)C)NC(=O)[C@H](Cc2ccccc2)NC1=O` (cyclo(F[dL][dL]VL)): the IC50 in test [1] was determined as 5 µM; in test [2], 1.4 µM; in test [3], 200 µM. Further, the inhibition at 5 µM in test [1] was determined as 51%; in test [2] it was 78%.
`CC(C)C[C@@H]1NC(=O)[C@H](CC(C)C)NC(=O)[C@H](CC(C)C)NC(=O)[C@@H](Cc2ccccc2)NC(=O)[C@H](CC(C)C)NC1=O`: the IC50 in test [1] was 5 µM; in test [2], 2 µM; in test [3], 200 µM. Further, the inhibition at 5 µM was found to be 48% in test [1] and 64% in test [2].
`CC(C)C[C@@H]1NC(=O)[C@@H](C(C)C)N(C)C(=O)[C@H](CC(C)C)NC(=O)[C@@H](CC(C)C)NC(=O)[C@H](Cc2ccccc2)NC1=O` (cyclo(F[dL]L[dNMeV]L)): the values for the inhibition at 5 µM in test [1] and in test [2] were 21% and 35%, respectively.
`CC[C@H]1NC(=O)[C@H](CC(C)C)NC(=O)[C@H](CC(C)C)NC(=O)[C@H](Cc2ccccc2)NC(=O)[C@H](CC(C)C)NC1=O` (cyclo(FLL[dAbu]L)): the inhibition at 5 µM came out at 12% in test [1] and 17% in test [2].
As for `CC(C)C[C@@H]1NC(=O)[C@H](Cc2ccccc2)NC(=O)[C@@H](CC(C)C)NC(=O)[C@@H](C(C)C)NC(=O)[C@H](CC(C)C)NC1=O` (cyclo(FLL[dV][dL])), the results for the inhibition at 5 µM in test [1] and in test [2] were 41% and 16%, respectively.
On the same counts, the results for `CC(C)C[C@@H]1NC(=O)[C@H](CC(C)C)NC(=O)[C@@H](Cc2ccccc2)NC(=O)[C@@H](CC(C)C)NC(=O)[C@@H](C(C)C)NC1=O` (cyclo(LL[dV][dL][dF])) are 67% and 34%.
Take `CC(C)C[C@@H]1NC(=O)[C@H](Cc2ccccc2)NC(=O)[C@H](CC(C)C)NC(=O)[C@H](C(C)C)NC(=O)[C@@H](CC(C)C)NC1=O` (cyclo(FL[dL]VL)): the inhibition at 5 µM was 24% in test [1] and 74% in test [2].
Regarding `CC(C)C[C@@H]1NC(=O)[C@H](Cc2ccccc2)NC(=O)[C@@H](CC(C)C)N(C)C(=O)[C@H](CC(C)C)NC(=O)[C@H](CC(C)C)NC1=O`, the inhibition at 5 µM in test [1] came to 5%; in test [2], 2%.
As to `CC(C)C[C@@H]1NC(=O)[C@H](C(C)C)NC(=O)[C@H](CC(C)C)NC(=O)[C@@H](CC(C)C)N(C)C(=O)[C@H](Cc2ccccc2)NC1=O` (cyclo([dNMeL]LVLF)), the IC50 is 3.5 µM in test [1], 3.8 µM in test [2] and 200 µM in test [3]. In addition, the inhibition at 5 µM in test [1] was found to be 52%; in test [2], 51%.
Consider `CC(C)C[C@@H]1NC(=O)[C@H](C(C)C)NC(=O)[C@H](CC(C)C)N(C)C(=O)[C@H](CC(C)C)NC(=O)[C@H](Cc2ccccc2)NC1=O` (cyclo(FL[NMeL]VL)), for which the inhibition at 5 µM in test [1] was 45%; in test [2], 2%.
`CC(C)C[C@@H]1NC(=O)[C@H](Cc2ccccc2)NC(=O)[C@H](CC(C)C)NC(=O)[C@@H](C(C)C)NC(=O)[C@H](CC(C)C)NC1=O` (cyclo(FLL[dV]L)): the half-maximal inhibitory concentration (IC50) in test [1] is 1.4 µM; in test [2] it was 5 µM; in test [3], 20 µM. Besides, the values for the inhibition at 5 µM in test [1] and in test [2] were 74% and 50%, respectively.
Regarding `CC(C)C[C@@H]1NC(=O)[C@H](CC(C)C)NC(=O)[C@H](CC(C)C)NC(=O)[C@@H](Cc2c[nH]c3ccccc23)NC(=O)[C@H](CC(C)C)NC1=O`, the inhibition at 5 µM in test [1] turned out to be 18%; in test [2], 30%.
With `CC(C)C[C@@H]1NC(=O)[C@H](CC(C)C)NC(=O)[C@H](Cc2ccccc2)NC(=O)[C@@H](Cc2ccccc2)NC(=O)[C@H](CC(C)C)NC1=O`, the inhibition at 5 µM in test [1] amounted to 45%; in test [2], 21%.
